In ChEMBL document CHEMBL4033717, “Synthesis and anticancer activity of novel aza-artemisinin derivatives” (Bioorg Med Chem, 2017):

Columns and labels:
[1] = tested on: CCRF-CEM; experiment: Anti-proliferative activity against human CEM cells after 4 days by coulter counting method; format: functional, cell-based; conditions: 96 h
[2] = tested on: HeLa; experiment: Anti-proliferative activity against human HeLa cells after 3 days by coulter counting method; format: functional, cell-based; conditions: 72 h
[3] = tested on: HMEC-1; experiment: Anti-proliferative activity against HMEC1 cells after 3 days by coulter counting method; format: cell-based; conditions: Homo sapiens, HMEC-1, 72 h
[4] = Selectivity ratio of IC50 for HMEC1 cells to IC50 for human CEM cells

Structure (SMILES): C[C@@H]1CC[C@H]2[C@@H](C)C(=O)N[C@@H]3O[C@@]4(C)CC[C@@H]1[C@]32OO4
- IC50 [1]: 150 µM
- IC50 [2]: 147 µM
- IC50 [3]: > 250 µM

Structure (SMILES): C[C@@H]1CC[C@H]2[C@@H](C)C(OCCn3nnc4c3CCc3ccccc3-4)O[C@@H]3O[C@@]4(C)CC[C@@H]1[C@]32OO4 (stereo partly drawn)
- IC50 [1]: 157 µM
- IC50 [2]: > 250 µM
- IC50 [3]: > 250 µM

Structure (SMILES): C[C@H]1[C@H](OC(=O)C2CCc3c(nnn3CCc3c[nH]c4ccccc34)C2)O[C@@H]2O[C@@]3(C)CC[C@H]4[C@H](C)CC[C@@H]1[C@@]24OO3 (stereo partly drawn)
- IC50 [1]: 3.9 µM
- IC50 [2]: 12 µM
- IC50 [3]: 40 µM

Structure (SMILES): COc1cc(-n2cc(CN3C(=O)[C@H](C)[C@@H]4CC[C@@H](C)[C@@H]5CC[C@@]6(C)OO[C@]54[C@H]3O6)nn2)cc(OC)c1OC
- IC50 [1]: 17 µM
- IC50 [2]: 19 µM
- IC50 [3]: 155 µM
- Ratio IC50 [4]: 8 - 50

Structure (SMILES): C[C@@H]1CC[C@H]2[C@@H](C)C(OCCn3nnc4c3C[C@@H]3CC[C@@H]5[C@H](CC[C@]6(C)[C@@H](O)CC[C@@H]56)[C@@]3(C)C4)O[C@@H]3O[C@@]4(C)CC[C@@H]1[C@]32OO4 (stereo partly drawn)
- IC50 [1]: 8.9 µM
- IC50 [2]: 16 µM
- IC50 [3]: 28 µM

Structure (SMILES): C[C@@H]1CC[C@H]2[C@@H](C)C(=O)N(Cc3cn(C4OC(COCc5ccccc5)[C@H](OCc5ccccc5)[C@@H]4OCc4ccccc4)nn3)[C@@H]3O[C@@]4(C)CC[C@@H]1[C@@]23OO4 (stereo partly drawn)
- IC50 [1]: > 250 µM
- IC50 [2]: ≥ 250 µM
- IC50 [3]: > 250 µM

Structure (SMILES): C[C@@H]1CC[C@H]2[C@@H](C)C(OCCn3nncc3-c3ccc(Br)c(Br)c3)O[C@@H]3O[C@@]4(C)CC[C@@H]1[C@]32OO4 (stereo partly drawn)
- IC50 [1]: 10 µM
- IC50 [2]: 11 µM
- IC50 [3]: 26 µM

Structure (SMILES): C[C@@H]1CC[C@H]2[C@@H](C)C(=O)N(Cc3cn(C4CC(OC(=O)c5ccc(Cl)cc5)C(COC(=O)c5ccc(Cl)cc5)O4)nn3)[C@@H]3O[C@@]4(C)CC[C@@H]1[C@@]23OO4 (stereo partly drawn)
- IC50 [1]: 2.6 µM
- IC50 [2]: 6.1 µM
- IC50 [3]: 24 µM

Structure (SMILES): C[C@H]1[C@H](OC(=O)C2CCc3c(nnn3Cc3ccc4c(c3)OCO4)C2)O[C@@H]2O[C@@]3(C)CC[C@H]4[C@H](C)CC[C@@H]1[C@@]24OO3 (stereo partly drawn)
- IC50 [1]: 2.8 µM
- IC50 [2]: 11 µM
- IC50 [3]: 35 µM

Structure (SMILES): CC(C)c1cccc(-n2cc(CN3C(=O)[C@H](C)[C@@H]4CC[C@@H](C)[C@@H]5CC[C@@]6(C)OO[C@]54[C@H]3O6)nn2)c1
- IC50 [1]: 0.92 µM
- IC50 [2]: 1.2 µM
- IC50 [3]: 30 µM
- Ratio IC50 [4]: 30

Structure (SMILES): C[C@@H]1CC[C@H]2[C@@H](C)C(OCCn3nnc4c3CCN(Cc3ccccc3)C4)O[C@@H]3O[C@@]4(C)CC[C@@H]1[C@]32OO4 (stereo partly drawn)
- IC50 [1]: 20 µM
- IC50 [2]: 19 µM
- IC50 [3]: 30 µM

Structure (SMILES): COc1cc2c(cc1OC)-c1nnn(CCOC3O[C@@H]4O[C@@]5(C)CC[C@H]6[C@H](C)CC[C@@H]([C@H]3C)[C@@]46OO5)c1CC2 (stereo partly drawn)
- IC50 [1]: 30 µM
- IC50 [2]: 36 µM
- IC50 [3]: 150 µM

Structure (SMILES): C=C(C)[C@@H]1CC[C@]2(C(=O)O)CC[C@]3(C)[C@H](CC[C@@H]4[C@@]5(C)Cc6nnn(CCOC7O[C@@H]8O[C@@]9(C)CC[C@H]%10[C@H](C)CC[C@@H]([C@H]7C)[C@@]8%10OO9)c6C(C)(C)[C@@H]5CC[C@]43C)[C@@H]12 (stereo partly drawn)
- IC50 [1]: 5 µM
- IC50 [2]: 24 µM
- IC50 [3]: 121 µM

Structure (SMILES): C[C@@H]1CC[C@H]2[C@@H](C)C(=O)N(Cc3cn(-c4ccccc4)nn3)[C@@H]3O[C@@]4(C)CC[C@@H]1[C@@]23OO4
- IC50 [1]: 5.1 µM
- IC50 [2]: 36 µM
- IC50 [3]: > 250 µM
- Ratio IC50 [4]: 8 - 50

Structure (SMILES): C[C@@H]1CC[C@H]2[C@@H](C)C(OCCn3nnc4c3CCc3ccc([N+](=O)[O-])cc3-4)O[C@@H]3O[C@@]4(C)CC[C@@H]1[C@]32OO4 (stereo partly drawn)
- IC50 [1]: 95 µM
- IC50 [2]: 175 µM
- IC50 [3]: 160 µM

Structure (SMILES): C[C@@H]1CC[C@H]2[C@@H](C)C(OCCn3nncc3-c3cccc4ccccc34)O[C@@H]3O[C@@]4(C)CC[C@@H]1[C@]32OO4 (stereo partly drawn)
- IC50 [1]: 11 µM
- IC50 [2]: 12 µM
- IC50 [3]: 24 µM

Structure (SMILES): COC(=O)Cn1cc(CN2C(=O)[C@H](C)[C@@H]3CC[C@@H](C)[C@@H]4CC[C@@]5(C)OO[C@]43[C@H]2O5)nn1
- IC50 [1]: ≥ 250 µM
- IC50 [2]: > 250 µM
- IC50 [3]: > 250 µM

Structure (SMILES): C#CCN1C(=O)[C@H](C)[C@@H]2CC[C@@H](C)[C@@H]3CC[C@@]4(C)OO[C@]32[C@H]1O4
- IC50 [1]: 104 µM
- IC50 [2]: 98 µM
- IC50 [3]: 241 µM

Structure (SMILES): C[C@@H]1CC[C@H]2[C@@H](C)C(OCCn3nnc4c3-c3ccccc3CC4)O[C@@H]3O[C@@]4(C)CC[C@@H]1[C@]32OO4 (stereo partly drawn)
- IC50 [1]: 21 µM
- IC50 [2]: 20 µM
- IC50 [3]: 35 µM

Structure (SMILES): C[C@@H]1CC[C@H]2[C@@H](C)C(=O)N(Cc3cn(-c4ccc(C#N)cc4)nn3)[C@@H]3O[C@@]4(C)CC[C@@H]1[C@@]23OO4
- IC50 [1]: 18 µM
- IC50 [2]: 36 µM
- IC50 [3]: 26 µM

Structure (SMILES): C[C@@H]1CC[C@H]2[C@@H](C)C(OCCn3nncc3-c3ccccc3)O[C@@H]3O[C@@]4(C)CC[C@@H]1[C@]32OO4 (stereo partly drawn)
- IC50 [1]: 25 µM
- IC50 [2]: 37 µM
- IC50 [3]: 62 µM

Structure (SMILES): COc1cc(Cn2nnc3c2CCC(C(=O)O[C@@H]2O[C@@H]4O[C@@]5(C)CC[C@H]6[C@H](C)CC[C@@H]([C@H]2C)[C@@]46OO5)C3)cc(OC)c1OC (stereo partly drawn)
- IC50 [1]: 4.3 µM
- IC50 [2]: 21 µM
- IC50 [3]: 40 µM

Structure (SMILES): COc1ccc2c(c1)-c1nnn(CCOC3O[C@@H]4O[C@@]5(C)CC[C@H]6[C@H](C)CC[C@@H]([C@H]3C)[C@@]46OO5)c1CC2 (stereo partly drawn)
- IC50 [1]: 128 µM
- IC50 [2]: 143 µM
- IC50 [3]: 105 µM

Structure (SMILES): COc1cc(-c2cnnn2CCOC2O[C@@H]3O[C@@]4(C)CC[C@H]5[C@H](C)CC[C@@H]([C@H]2C)[C@@]35OO4)ccc1O (stereo partly drawn)
- IC50 [1]: 39 µM
- IC50 [2]: 23 µM
- IC50 [3]: 62 µM

Structure (SMILES): Cc1ccc(Cn2nnc3c2CCC(C(=O)O[C@@H]2O[C@@H]4O[C@@]5(C)CC[C@H]6[C@H](C)CC[C@@H]([C@H]2C)[C@@]46OO5)C3)cc1 (stereo partly drawn)
- IC50 [1]: 2.7 µM
- IC50 [2]: 11 µM
- IC50 [3]: 34 µM
